Results on 21 compounds are retold here after CN116283752A (priority 2023, dated 2023).

Values after ≈ are worked out from the molar mass of the structure shown. Where two headings read alike, the source gives them in different places. A value given as a limit tells only on which side of the number the result lay.

Assay type in all cases: cell-based
Assay [1] relates to autoluminescent Mycobacterium tuberculosis H37Ra [自主发光Mtb H37Ra]. Put plainly: microbe, parasite or virus in culture.
Assay [2] concerns Mycobacterium tuberculosis H37Ra [结核分枝杆菌H37Ra].
Assay [3] concerns wild-type Mycobacterium tuberculosis H37Rv [野生型结核分枝杆菌(H37Rv)]. Put plainly: microbe, parasite or virus in culture. To be noted: Alamar Blue, 37℃, 10 days + 1 day; for MIC: compound alone; for MIC + TB47: with TB47 0.003 μg/mL. A general note: Resazurin is reduced to fluorescent resorufin, in cell work by metabolically active cells.
[4] abbreviates: Mycobacterium tuberculosis, H37RA, read-out: MIC.
Where [5] appears, read: Mycobacterium tuberculosis, read-out: MIC.

Consider `O=C(Nc1cncc(C(F)(F)F)c1)c1cc(Cl)ccc1O` [compound 5, 5-氯-2-羟基-N-(5-三氟甲基-3-吡啶基)-苯甲酰胺], for which the MIC in assay [1] (setting [4]) turned out to be 5 µg/mL (≈ 15.8 µM).

`O=C(Nc1cc(Cl)nc(Cl)c1)c1cc(Cl)ccc1O` [compound 6, 5-氯-N-(2,6-二氯-4-吡啶基)-2-羟基苯甲酰胺]: the “MIC in synergy with TB47” value in assay [2] was found to be 0.625 µg/mL. Further, the MIC in assay [1] and in assay [1] (setting [4]) was 1.25 µg/mL (≈ 3.94 µM) throughout.

For `O=C(Nc1cnc(Cl)cn1)c1cc(Cl)ccc1O` [compound 9, 5-氯-N-(5-氯-2-吡嗪基)-2-羟基苯甲酰胺], in assay [1] (setting [4]), the MIC turned out to be 4 µg/mL (≈ 14.1 µM).

Consider `O=C(Nc1ncc(Cl)cn1)c1cc(Cl)ccc1O` [compound 12, 5-氯-N-(5-氯-2-嘧啶基)-2-羟基苯甲酰胺], for which, in assay [1] (setting [4]), the MIC came to 5 µg/mL (≈ 17.6 µM).

As for `O=C(Nc1cnc(Cl)nc1)c1cc(Cl)ccc1O` [compound 13, 5-氯-N-(2-氯-5-嘧啶基)-2-羟基苯甲酰胺], the MIC in assay [1] (setting [4]) was 5 µg/mL (≈ 17.6 µM).

In the case of `O=C(Nc1cc(Cl)ncn1)c1cc(Cl)ccc1O` [compound 14, 5-氯-N-(6-氯-4-嘧啶基)-2-羟基苯甲酰胺], the MIC in assay [1] (setting [4]) amounted to 2.5 µg/mL (≈ 8.8 µM).

For `O=C(Nc1nccc(C(F)(F)F)n1)c1cc(Cl)ccc1O` [compound 15, 5-氯-2-羟基-N-(4-三氟甲基-2-嘧啶基)-苯甲酰胺], the MIC in assay [1] (setting [4]) was 5 µg/mL (≈ 15.7 µM).

In the case of `O=C(Nc1cc(C(F)(F)F)ncn1)c1cc(Cl)ccc1O` [compound 16, 5-氯-2-羟基-N-(6-三氟甲基-4-嘧啶基)-苯甲酰胺], the “MIC in synergy with TB47” value in assay [2] amounted to 0.625 µg/mL. Further, the MIC in assay [1] and in assay [1] (setting [4]) was 2.5 µg/mL (≈ 7.87 µM) each time.

Regarding `O=C(Nc1nc2ccc(OC(F)(F)F)cc2s1)c1cc(Cl)ccc1O` [compound 17, 5-氯-2-羟基-N-(6-三氟甲氧基-2-苯并噻唑基)-苯甲酰胺], in assay [1] (setting [4]), the MIC worked out at 10 µg/mL (≈ 25.7 µM).

In the case of `O=C(Nc1ccc(Cl)nn1)c1cc(Cl)ccc1O` [compound 19, 5-氯-N-(6-氯-3-哒嗪基)-2-羟基苯甲酰胺], the MIC in assay [1] (setting [4]) is 10 µg/mL (≈ 35.2 µM).

As for `O=C(Nc1nnc(C(F)(F)F)s1)c1cc(Cl)ccc1O` [compound 20, 5-氯-2-羟基-N-[5-三氟甲基-2-(1,3,4-噻二唑基)]-苯甲酰胺], in assay [1] (setting [4]), the MIC was determined as 10 µg/mL (≈ 30.9 µM).

Take `O=C(Nc1ncc(Cl)s1)c1cc(Cl)ccc1O` [compound 21, 5-氯-N-(5-氯-2-噻唑基)-2-羟基苯甲酰胺]: the MIC in assay [1] (setting [4]) was 5 µg/mL (≈ 17.3 µM).

Regarding `O=C(Nc1ccc(Cl)cn1)c1cc(Cl)ccc1O` [化合物1, 5-氯-N-(5-氯-2-吡啶基)-2-羟基苯甲酰胺], the MIC in assay [1] (setting [4]) worked out at 5 µg/mL (≈ 17.7 µM).

Consider `O=C(Nc1ccc(C(F)(F)F)cn1)c1cc(Cl)ccc1O` [化合物2, 5-氯-2-羟基-N-(5-三氟甲基-2-吡啶基)-苯甲酰胺], for which the MIC in assay [1] and in assay [1] (setting [4]) was 1.25 µg/mL (≈ 3.95 µM) throughout.

In the case of `O=C(Nc1ccc(C(F)(F)F)nc1)c1cc(Cl)ccc1O` [化合物3, 5-氯-2-羟基-N-(6-三氟甲基-3-吡啶基)-苯甲酰胺], the “MIC in synergy with TB47” value in assay [2] worked out at 0.25 µg/mL. The MIC in assay [1] amounted to 4 µg/mL (≈ 12.6 µM); in assay [1] (setting [4]), 4 µg/mL (≈ 12.6 µM); in assay [3] (setting [5]), 4 µg/mL. In assay [3], the “MIC + TB47” value is 0.5 µg/mL.

On to `O=C(Nc1ccnc(C(F)(F)F)c1)c1cc(Cl)ccc1O` [化合物4, 5-氯-2-羟基-N-(2-三氟甲基-4-吡啶基)-苯甲酰胺], for which the “MIC in synergy with TB47” value in assay [2] was found to be 0.625 µg/mL. In addition, the MIC in assay [1] was determined as 1.25 µg/mL (≈ 3.95 µM); in assay [1] (setting [4]) it was 1.25 µg/mL (≈ 3.95 µM); in assay [3] (setting [5]), 2 µg/mL; in assay [3], 2 µg/mL. Also, the “MIC + TB47” value in assay [3] is below 0.125 µg/mL.

With `O=C(Nc1cnc(Cl)c(Cl)c1)c1cc(Cl)ccc1O` [化合物7, 5-氯-N-(5,6-二氯-3-吡啶基)-2-羟基苯甲酰胺], the MIC in assay [1] (setting [4]) turned out to be 2.5 µg/mL (≈ 7.87 µM); in assay [3] (setting [5]), 4 µg/mL. The “MIC + TB47” value in assay [3] is 0.25 µg/mL.

Take `O=C(Nc1ccc(Cl)nc1Cl)c1cc(Cl)ccc1O` [化合物8, 5-氯-N-(2,6-二氯-3-吡啶基)-2-羟基苯甲酰胺]: in assay [2], the “MIC in synergy with TB47” value was determined as 0.625 µg/mL. Moreover, the values for the MIC in assay [1], in assay [1] (setting [4]) and in assay [3] (setting [5]) were 2.5 µg/mL (≈ 7.87 µM), 2.5 µg/mL (≈ 7.87 µM) and 4 µg/mL, respectively. Moreover, the “MIC + TB47” value in assay [3] came out at 0.25 µg/mL.

As for `O=C(Nc1cncc(Cl)n1)c1cc(Cl)ccc1O` [化合物10, 5-氯-N-(6-氯-2-吡嗪基)-2-羟基苯甲酰胺], the MIC worked out at 2.5 µg/mL (≈ 8.8 µM) in assay [1] (setting [4]) and 4 µg/mL in assay [3] (setting [5]). The “MIC + TB47” value in assay [3] was 0.25 µg/mL.

For the compound `O=C(Nc1cnc(C(F)(F)F)cn1)c1cc(Cl)ccc1O` [化合物11, 5-氯-2-羟基-N-(5-三氟甲基-2-吡嗪基)-苯甲酰胺], the “MIC in synergy with TB47” value in assay [2] was determined as 0.625 µg/mL. Further, the MIC worked out at 1.25 µg/mL (≈ 3.94 µM) in assay [1], 1.25 µg/mL (≈ 3.94 µM) in assay [1] (setting [4]), 2 µg/mL in assay [3] (setting [5]) and 2 µg/mL in assay [3]. In assay [3], the “MIC + TB47” value is below 0.125 µg/mL.

Turning to `O=C(Nc1nc2ccc(C(F)(F)F)cc2s1)c1cc(Cl)ccc1O` [化合物18, 5-氯-2-羟基-N-(6-三氟甲基-2-苯并噻唑基)-苯甲酰胺], in assay [2], the “MIC in synergy with TB47” value worked out at 0.625 µg/mL. The MIC in assay [1] and in assay [1] (setting [4]) was 5 µg/mL (≈ 13.4 µM) in each case.
